Reference: patent US20230085307A1, “PYRIDAZINONE COMPOUND AND HERBICIDE” (NISSAN CHEMICAL CORPORATION, priority 2019, published 2023)

What was measured:
Italian ryegrass = experiment: Test Example 5: herbicidal effect by foliage application, plastic box (Table 20, symbol K); assay type: in vivo, Italian ryegrass (Lolium multiflorum); conditions: foliage application, evaluated three weeks after application; for herbicidal effect on K: Italian ryegrass (criteria 0-5): 320 g/ha
Method in brief: (§1)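 Sow seeds spot-wise in sterilized diluvial soil; cover with ~1.5 cm soil. Grow 14 days in greenhouse, 25° C. to 30° C. Spray foliage with emulsion diluted to predetermined amount. Rate effect after 3 weeks.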

chickweed = experiment: Test Example 4: herbicidal effect by soil treatment (Table 19, symbol P); assay type: in vivo, common chickweed (Stellaria media); conditions: amount of applied herbicide 320 g/ha
Method in brief: (§2)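 Applied as a water-diluted emulsion, the compound was sprayed onto soil covering newly sown seeds. Evaluation came three weeks after application, in a greenhouse held at 25° C. to 30° C.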

barnyard grass [1] = experiment: Test Example 3: herbicidal effect by foliage application, Wagner pot (Table 18, symbol H); assay type: in vivo, barnyard grass (Echinochloa crus-galli); conditions: amount of applied herbicide 320 g/ha
Method in brief: (§3)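 Plants were sown in alluvial soil held under 0.1–0.5 cm standing water and grown 14 days in a greenhouse at 25–30 °C. An emulsifiable formulation, water-diluted to the set dose, was then sprayed onto the foliage, and effects were scored three weeks later using previously defined criteria.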

redroot pigweed [2] = experiment: Test Example 5: herbicidal effect by foliage application, plastic box (Table 20, symbol N); assay type: in vivo, redroot pigweed (Amaranthus retroflexus); conditions: foliage application, evaluated three weeks after application; for herbicidal effect on N: redroot pigweed (criteria 0-5): 320 g/ha
Method in brief: as §1

blackgrass [3] = experiment: Test Example 4: herbicidal effect by soil treatment (Table 19, symbol J); assay type: in vivo, blackgrass (Alopecurus myosuroides); conditions: amount of applied herbicide 320 g/ha
Method in brief: as §2

southern crabgrass = experiment: Test Example 4: herbicidal effect by soil treatment (Table 19, symbol F); assay type: in vivo, southern crabgrass (Digitaria ciliaris); conditions: amount of applied herbicide 320 g/ha
Method in brief: as §2

barnyard grass [4] = experiment: Test Example 5: herbicidal effect by foliage application, plastic box (Table 20, symbol H); assay type: in vivo, barnyard grass (Echinochloa crus-galli); conditions: foliage application, evaluated three weeks after application; for herbicidal effect on H: barnyard grass (criteria 0-5): 320 g/ha
Method in brief: as §1

late watergrass = experiment: Test Example 2: herbicidal activity, application during weed generation under submerged conditions (Table 17, symbol A); assay type: in vivo, late watergrass (Echinochloa oryzicola); conditions: AAH 320 g/ha; application during weed generation, submerged conditions
Method in brief: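 Herbicide emulsion, diluted with water to the chosen amount, is applied onto 4 cm floodwater over alluvial soil where the weeds were co-sown and raised at 25–30° C. Application timing: 1–2 leaves. Assessment: three weeks afterwards.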

redroot pigweed [5] = experiment: Test Example 4: herbicidal effect by soil treatment (Table 19, symbol N); assay type: in vivo, redroot pigweed (Amaranthus retroflexus); conditions: amount of applied herbicide 320 g/ha
Method in brief: as §2

barnyard grass [6] = experiment: Test Example 4: herbicidal effect by soil treatment (Table 19, symbol H); assay type: in vivo, barnyard grass (Echinochloa crus-galli); conditions: amount of applied herbicide 320 g/ha
Method in brief: as §2

persian speedwell = experiment: Test Example 5: herbicidal effect by foliage application, plastic box (Table 20, symbol R); assay type: in vivo, Persian speedwell (Veronica persica); conditions: foliage application, evaluated three weeks after application; for herbicidal effect on R: persian speedwell (criteria 0-5): 320 g/ha
Method in brief: as §1

velvetleaf = experiment: Test Example 5: herbicidal effect by foliage application, plastic box (Table 20, symbol M); assay type: in vivo, velvetleaf (Abutilon theophrasti); conditions: foliage application, evaluated three weeks after application; for herbicidal effect on M: velvetleaf (criteria 0-5): 320 g/ha
Method in brief: as §1

Chinese sprangletop = experiment: Test Example 3: herbicidal effect by foliage application, Wagner pot (Table 18, symbol D); assay type: in vivo, chinese sprangletop (Leptochloa chinensis); conditions: amount of applied herbicide 320 g/ha
Method in brief: as §3

lambsquarters = experiment: Test Example 4: herbicidal effect by soil treatment (Table 19, symbol O); assay type: in vivo, lambsquarters (Chenopodium album); conditions: amount of applied herbicide 320 g/ha
Method in brief: as §2

wild oat = experiment: Test Example 5: herbicidal effect by foliage application, plastic box (Table 20, symbol I); assay type: in vivo, wild oat (Avena fatua); conditions: foliage application, evaluated three weeks after application; for herbicidal effect on I: wild oat (criteria 0-5): 320 g/ha
Method in brief: as §1

blackgrass [7] = experiment: Test Example 5: herbicidal effect by foliage application, plastic box (Table 20, symbol J); assay type: in vivo, blackgrass (Alopecurus myosuroides); conditions: foliage application, evaluated three weeks after application; for herbicidal effect on J: blackgrass (criteria 0-5): 320 g/ha
Method in brief: as §1

| Structure (SMILES) | herbicidal effect on K: Italian ryegrass (criteria 0-5) (Italian ryegrass) | herbicidal effect on P: chickweed (chickweed) | herbicidal effect on H: barnyard grass (barnyard grass [1]) | herbicidal effect on N: redroot pigweed (criteria 0-5) (redroot pigweed [2]) | herbicidal effect on J: blackgrass (blackgrass [3]) | herbicidal effect on F: southern crabgrass (southern crabgrass) | herbicidal effect on H: barnyard grass (criteria 0-5) (barnyard grass [4]) | herbicidal effect rating, A: late watergrass (late watergrass) | herbicidal effect on N: redroot pigweed (redroot pigweed [5]) | herbicidal effect on H: barnyard grass (barnyard grass [6]) | herbicidal effect on R: persian speedwell (criteria 0-5) (persian speedwell) | herbicidal effect on M: velvetleaf (criteria 0-5) (velvetleaf) | herbicidal effect on D: Chinese sprangletop (Chinese sprangletop) | herbicidal effect on O: lambsquarters (lambsquarters) | herbicidal effect on I: wild oat (criteria 0-5) (wild oat) | herbicidal effect on J: blackgrass (criteria 0-5) (blackgrass [7]) | other results |
| --- | --- | --- | --- | --- | --- | --- | --- | --- | --- | --- | --- | --- | --- | --- | --- | --- | --- |
| Cc1nn(C)c(=O)c(-c2c(-c3cccc(OC(C)(C)C)c3)sc3ccc(F)cc23)c1O [2-223] | 1 (Herbicidal rate of 5% or more and less than 20%) | 4 (Herbicidal rate of 70% or more and less than 90%) | 5 (Herbicidal rate of 90% or more (almost completely withered)) | 4 (Herbicidal rate of 70% or more and less than 90%) | 0 (Herbicidal rate of 5% or less (almost no effect)) | 4 (Herbicidal rate of 70% or more and less than 90%) | 4 (Herbicidal rate of 70% or more and less than 90%) | 3 (Herbicidal rate of 40% or more and less than 70%) | 3 (Herbicidal rate of 40% or more and less than 70%) | 3 (Herbicidal rate of 40% or more and less than 70%) | 5 (Herbicidal rate of 90% or more (almost completely withered)) | 5 (Herbicidal rate of 90% or more (almost completely withered)) | 3 (Herbicidal rate of 40% or more and less than 70%) | 3 (Herbicidal rate of 40% or more and less than 70%) | 1 (Herbicidal rate of 5% or more and less than 20%) | 0 (Herbicidal rate of 5% or less (almost no effect)) | – |
| CCCC(=O)Oc1c(C)nn(C)c(=O)c1-c1c(-c2ccc(C(F)F)cc2)sc2ccc(F)cc12 [2-228] | 3 (Herbicidal rate of 40% or more and less than 70%) | 4 (Herbicidal rate of 70% or more and less than 90%) | 5 (Herbicidal rate of 90% or more (almost completely withered)) | 5 (Herbicidal rate of 90% or more (almost completely withered)) | 0 (Herbicidal rate of 5% or less (almost no effect)) | 2 (Herbicidal rate of 20% or more and less than 40%) | 5 (Herbicidal rate of 90% or more (almost completely withered)) | 3 (Herbicidal rate of 40% or more and less than 70%) | 4 (Herbicidal rate of 70% or more and less than 90%) | 5 (Herbicidal rate of 90% or more (almost completely withered)) | 5 (Herbicidal rate of 90% or more (almost completely withered)) | 5 (Herbicidal rate of 90% or more (almost completely withered)) | 4 (Herbicidal rate of 70% or more and less than 90%) | 4 (Herbicidal rate of 70% or more and less than 90%) | 0 (Herbicidal rate of 5% or less (almost no effect)) | 3 (Herbicidal rate of 40% or more and less than 70%) | – |
| CCSc1ccc(-c2sc3ccc(F)cc3c2-c2c(O)c(C)nn(C)c2=O)cc1 [2-244] | 5 (Herbicidal rate of 90% or more (almost completely withered)) | 1 (Herbicidal rate of 5% or more and less than 20%) | 5 (Herbicidal rate of 90% or more (almost completely withered)) | 5 (Herbicidal rate of 90% or more (almost completely withered)) | 5 (Herbicidal rate of 90% or more (almost completely withered)) | 5 (Herbicidal rate of 90% or more (almost completely withered)) | 5 (Herbicidal rate of 90% or more (almost completely withered)) | 5 (Herbicidal rate of 90% or more (almost completely withered)) | 5 (Herbicidal rate of 90% or more (almost completely withered)) | 4 (Herbicidal rate of 70% or more and less than 90%) | 5 (Herbicidal rate of 90% or more (almost completely withered)) | 5 (Herbicidal rate of 90% or more (almost completely withered)) | 5 (Herbicidal rate of 90% or more (almost completely withered)) | 4 (Herbicidal rate of 70% or more and less than 90%) | 5 (Herbicidal rate of 90% or more (almost completely withered)) | 5 (Herbicidal rate of 90% or more (almost completely withered)) | – |
| CCCC(=O)Oc1c(C)nn(C)c(=O)c1-c1c(-c2ccc(SCC)cc2)sc2ccc(F)cc12 [2-245] | 5 (Herbicidal rate of 90% or more (almost completely withered)) | 4 (Herbicidal rate of 70% or more and less than 90%) | 5 (Herbicidal rate of 90% or more (almost completely withered)) | 5 (Herbicidal rate of 90% or more (almost completely withered)) | 3 (Herbicidal rate of 40% or more and less than 70%) | 4 (Herbicidal rate of 70% or more and less than 90%) | 5 (Herbicidal rate of 90% or more (almost completely withered)) | 5 (Herbicidal rate of 90% or more (almost completely withered)) | 5 (Herbicidal rate of 90% or more (almost completely withered)) | 5 (Herbicidal rate of 90% or more (almost completely withered)) | 5 (Herbicidal rate of 90% or more (almost completely withered)) | 5 (Herbicidal rate of 90% or more (almost completely withered)) | 4 (Herbicidal rate of 70% or more and less than 90%) | 4 (Herbicidal rate of 70% or more and less than 90%) | 5 (Herbicidal rate of 90% or more (almost completely withered)) | 4 (Herbicidal rate of 70% or more and less than 90%) | – |
| Cc1nn(C)c(=O)c(-c2c(-c3ccc(SC4CC4)cc3)sc3ccc(F)cc23)c1O [2-254] | – | 4 (Herbicidal rate of 70% or more and less than 90%) | 5 (Herbicidal rate of 90% or more (almost completely withered)) | – | 4 (Herbicidal rate of 70% or more and less than 90%) | 5 (Herbicidal rate of 90% or more (almost completely withered)) | – | 4 (Herbicidal rate of 70% or more and less than 90%) | 5 (Herbicidal rate of 90% or more (almost completely withered)) | 5 (Herbicidal rate of 90% or more (almost completely withered)) | – | – | 5 (Herbicidal rate of 90% or more (almost completely withered)) | 4 (Herbicidal rate of 70% or more and less than 90%) | – | – | K: Italian ryegrass, herbicidal effect (criteria 0-5) (Italian ryegrass; AAH 320 g/ha): 5 (Herbicidal rate of 90% or more (almost completely withered)); N: redroot pigweed, herbicidal effect (criteria 0-5) (redroot pigweed [2]; AAH 320 g/ha): 5 (Herbicidal rate of 90% or more (almost completely withered)); H: barnyard grass, herbicidal effect (criteria 0-5) (barnyard grass [4]; AAH 320 g/ha): 5 (Herbicidal rate of 90% or more (almost completely withered)); R: persian speedwell, herbicidal effect (criteria 0-5) (persian speedwell; AAH 320 g/ha): 5 (Herbicidal rate of 90% or more (almost completely withered)); M: velvetleaf, herbicidal effect (criteria 0-5) (velvetleaf; AAH 320 g/ha): 5 (Herbicidal rate of 90% or more (almost completely withered)); I: wild oat, herbicidal effect (criteria 0-5) (wild oat; AAH 320 g/ha): 5 (Herbicidal rate of 90% or more (almost completely withered)); J: blackgrass, herbicidal effect (criteria 0-5) (blackgrass [7]; AAH 320 g/ha): 5 (Herbicidal rate of 90% or more (almost completely withered)) |
